One may read the clearance as the volume of plasma or blood freed of the substance per unit of time. As a reminder, the EC50 is the midpoint of the concentration-response curve. Low values mean higher potency in that assay, high ones lower potency in that assay.

Active and inactive are the calls of the source. The calls are words filed in the database; no cut-off is given here.

Six molecules from ChEMBL document CHEMBL3822442, “Synthesis and Pharmacological Characterization of Novel Glucagon-like Peptide-2 (GLP-2) Analogues with Low Systemic Clearance” (J Med Chem, 2016) can be followed below.

Series [1] has as its target Glucagon receptor (Homo sapiens) (UniProt P47871). Kind of series: Agonist activity at human GCGR expressed in HEK293 cells up to 1000 nM after 5 hrs by luciferase reporter gene assay. It is filed as cell-based. A general note: In a reporter assay the amount or activity of a reporter protein is the signal.
In another series the test system is HEK293. Kind of series: Selectivity ratio of EC50 for human GLP1R expressed in HEK293 cells to EC50 for human GLP2R expressed in HEK293. It is filed as cell-based.
A short description of series [2]: Systemic clearance in Sprague-Dawley rat at 0.2 mg/kg, iv through cassette dosing measured up to 300 mins by LC/MS/MS analysis. It counts as ADME, organism-based. The note with it: in vivo.
For series [3], the target named is T1, Glucagon-like peptide 2 receptor (Homo sapiens, UniProt O95838).
T1 sequence (O95838 whole entry): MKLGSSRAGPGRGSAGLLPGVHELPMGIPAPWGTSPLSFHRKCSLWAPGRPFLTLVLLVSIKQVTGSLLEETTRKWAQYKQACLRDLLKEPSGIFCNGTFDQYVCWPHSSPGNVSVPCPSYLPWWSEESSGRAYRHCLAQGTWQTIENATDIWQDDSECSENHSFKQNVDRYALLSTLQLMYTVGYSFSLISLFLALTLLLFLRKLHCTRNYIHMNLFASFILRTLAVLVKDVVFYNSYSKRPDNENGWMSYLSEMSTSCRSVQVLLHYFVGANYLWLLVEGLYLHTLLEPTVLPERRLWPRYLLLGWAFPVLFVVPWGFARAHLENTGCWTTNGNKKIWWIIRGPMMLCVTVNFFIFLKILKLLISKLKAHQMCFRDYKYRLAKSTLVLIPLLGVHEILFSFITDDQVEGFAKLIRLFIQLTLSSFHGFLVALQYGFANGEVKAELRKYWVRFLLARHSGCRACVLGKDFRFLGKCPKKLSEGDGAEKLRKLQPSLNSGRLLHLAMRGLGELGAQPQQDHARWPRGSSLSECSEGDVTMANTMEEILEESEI
Description: Agonist activity at human GLP2R expressed in HEK293 cells after 5 hrs by luciferase reporter gene assay. It is filed as cell-based.

For series [4], the target named is T2, Glucagon-like peptide 1 receptor (Homo sapiens, UniProt P43220). Kind of series: Agonist activity at human GLP1R expressed in HEK293 cells at 30 nM after 5 hrs by luciferase reporter gene assay. It counts as cell-based.
In series [5] the target is Glucagon receptor (Homo sapiens) (UniProt P47871). Description: Agonist activity at human GCGR expressed in HEK293 cells after 5 hrs by luciferase reporter gene assay. It is filed as cell-based.
For series [6], the target named is T2, Glucagon-like peptide 1 receptor. Description: Agonist activity at human GLP1R expressed in HEK293 cells after 5 hrs by luciferase reporter gene assay. It is filed as cell-based.

Sequence of Glucagon receptor (Homo sapiens) (P47871 whole entry): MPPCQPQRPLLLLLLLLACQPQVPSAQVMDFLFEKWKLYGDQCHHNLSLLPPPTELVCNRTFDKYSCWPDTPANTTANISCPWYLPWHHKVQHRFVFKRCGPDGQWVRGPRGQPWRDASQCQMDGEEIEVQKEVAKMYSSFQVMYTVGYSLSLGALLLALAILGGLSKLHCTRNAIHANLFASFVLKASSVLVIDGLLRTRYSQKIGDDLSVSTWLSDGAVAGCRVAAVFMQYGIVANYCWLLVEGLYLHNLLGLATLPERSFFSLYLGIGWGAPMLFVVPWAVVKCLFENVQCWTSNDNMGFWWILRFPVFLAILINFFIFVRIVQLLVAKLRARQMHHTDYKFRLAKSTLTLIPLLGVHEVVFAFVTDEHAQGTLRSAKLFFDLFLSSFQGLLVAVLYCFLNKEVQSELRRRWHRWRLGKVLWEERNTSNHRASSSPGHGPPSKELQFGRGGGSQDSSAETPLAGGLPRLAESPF
T2 sequence (P43220 whole entry): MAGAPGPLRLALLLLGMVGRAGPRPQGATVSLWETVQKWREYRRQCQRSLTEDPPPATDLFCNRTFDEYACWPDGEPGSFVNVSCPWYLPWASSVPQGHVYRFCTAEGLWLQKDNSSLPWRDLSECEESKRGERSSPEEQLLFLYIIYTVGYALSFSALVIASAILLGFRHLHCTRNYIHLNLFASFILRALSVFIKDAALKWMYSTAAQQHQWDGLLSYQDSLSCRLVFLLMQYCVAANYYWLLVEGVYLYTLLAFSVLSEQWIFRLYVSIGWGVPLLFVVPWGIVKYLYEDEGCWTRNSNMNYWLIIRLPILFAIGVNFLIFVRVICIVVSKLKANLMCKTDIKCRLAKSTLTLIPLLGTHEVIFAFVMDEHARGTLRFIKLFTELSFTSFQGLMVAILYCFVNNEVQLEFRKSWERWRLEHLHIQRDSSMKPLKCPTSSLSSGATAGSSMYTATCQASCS

Take `CCCCC(NC(=O)[C@H](CCC(=O)O)NC(=O)[C@H](CC(=O)O)NC(=O)[C@H](CO)NC(=O)[C@H](Cc1ccccc1)NC(=O)[C@H](CO)NC(=O)CNC(=O)[C@H](CC(=O)O)NC(=O)CNC(=O)[C@H](N)Cc1cnc[nH]1)C(=O)N[C@@H](CC(N)=O)C(=O)N[C@H](C(=O)N[C@H](C(=O)N[C@@H](CC(C)C)C(=O)N[C@@H](CC(=O)O)C(=O)NC(Cc1ccc(N)cc1)C(=O)N[C@H](CC(C)C)C(=O)N[C@H](C)C(=O)N[C@H](C)C(=O)N[C@H](CCCNC(=N)N)C(=O)N[C@H](CC(=O)O)C(=O)N[C@H](Cc1ccccc1)C(=O)N[C@@H](C(=O)N[C@H](CC(N)=O)C(=O)N[C@@H](Cc1c[nH]c2ccccc12)C(=O)N[C@@H](CC(C)C)C(=O)N[C@H](C(=O)N[C@@H](CCC(N)=O)C(=O)N[C@H](C(=O)N[C@H](CCCCN)C(N)=O)[C@@H](C)O)[C@H](C)CC)[C@@H](C)CC)[C@H](C)CC)[C@@H](C)O` (some centres not stated): the outcome in series [1] was inactive. Further, the Ratio EC50 in the series on HEK293 was more than 7600.
`CCCCC(NC(=O)[C@H](CCC(=O)O)NC(=O)[C@H](CC(=O)O)NC(=O)[C@H](CO)NC(=O)[C@H](Cc1ccccc1)NC(=O)[C@H](CO)NC(=O)CNC(=O)[C@H](CC(=O)O)NC(=O)CNC(=O)[C@@H](N)Cc1cnc[nH]1)C(=O)N[C@H](Cc1ccc(O)cc1)C(=O)N[C@H](C(=O)N[C@H](C(=O)N[C@@H](CC(C)C)C(=O)N[C@@H](CC(=O)O)C(=O)N[C@@H](CC(N)=O)C(=O)N[C@@H](CC(C)C)C(=O)N[C@@H](C)C(=O)N[C@@H](C)C(=O)N[C@@H](CCCNC(=N)N)C(=O)N[C@@H](CC(=O)O)C(=O)N[C@@H](Cc1ccccc1)C(=O)N[C@H](C(=O)N[C@@H](CC(N)=O)C(=O)N[C@@H](Cc1c[nH]c2ccccc12)C(=O)N[C@@H](CC(C)C)C(=O)N[C@H](C(=O)N[C@@H](CCC(N)=O)C(=O)N[C@H](C(=O)N[C@@H](CCCCN)C(N)=O)[C@@H](C)O)[C@@H](C)CC)[C@@H](C)CC)[C@@H](C)CC)[C@@H](C)O` (some centres not stated): in series [2], the clearance turned out to be 4.9 mL/min/kg. The EC50 came out at 0.18 nM in series [3] and 32 nM in series [6]. Further, the Efficacy in series [4] is 68%. Also, in series [5], the outcome was inactive. The Ratio EC50 with HEK293 is 170.
The molecule `CCCCC(NC(=O)[C@@H](CCC(=O)O)NC(=O)[C@@H](CC(=O)O)NC(=O)[C@@H](CO)NC(=O)[C@@H](Cc1ccccc1)NC(=O)[C@@H](CO)NC(=O)CNC(=O)[C@@H](CC(=O)O)NC(=O)CNC(=O)[C@@H](N)Cc1cnc[nH]1)C(=O)NC(Cc1ccc(Cl)cc1)C(=O)N[C@H](C(=O)N[C@H](C(=O)N[C@@H](CC(C)C)C(=O)N[C@@H](CC(=O)O)C(=O)N[C@@H](CC(N)=O)C(=O)N[C@@H](CC(C)C)C(=O)N[C@@H](C)C(=O)N[C@@H](C)C(=O)N[C@@H](CCCNC(=N)N)C(=O)N[C@@H](CC(=O)O)C(=O)N[C@@H](Cc1ccccc1)C(=O)N[C@H](C(=O)N[C@@H](CC(N)=O)C(=O)N[C@H](Cc1c[nH]c2ccccc12)C(=O)N[C@H](CC(C)C)C(=O)N[C@@H](C(=O)N[C@H](CCC(N)=O)C(=O)N[C@@H](C(=O)N[C@@H](CCCCN)C(N)=O)[C@H](C)O)[C@@H](C)CC)[C@H](C)CC)[C@H](C)CC)[C@@H](C)O` (some centres not stated) gave a clearance in series [2] of 0.55 mL/min/kg. The values for the EC50 in series [3] (hek293) and in series [6] (hek293) were 0.16 nM and 8.8 nM, respectively. The molecule further returned an Efficacy in series [4] of 89%. The outcome in series [5] was inactive. Moreover, in the series on HEK293, the Ratio EC50 is 55.
In turn, `CCCCC(NC(=O)[C@H](CCC(=O)O)NC(=O)[C@H](CC(=O)O)NC(=O)[C@H](CO)NC(=O)[C@H](Cc1ccccc1)NC(=O)[C@H](CO)NC(=O)CNC(=O)[C@H](CC(=O)O)NC(=O)CNC(=O)[C@@H](N)Cc1cnc[nH]1)C(=O)N[C@H](Cc1cccc(Cl)c1)C(=O)N[C@H](C(=O)N[C@H](C(=O)N[C@@H](CC(C)C)C(=O)N[C@@H](CC(=O)O)C(=O)N[C@@H](CC(N)=O)C(=O)N[C@@H](CC(C)C)C(=O)N[C@@H](C)C(=O)N[C@@H](C)C(=O)N[C@@H](CCCNC(=N)N)C(=O)N[C@@H](CC(=O)O)C(=O)N[C@@H](Cc1ccccc1)C(=O)N[C@H](C(=O)N[C@@H](CC(N)=O)C(=O)N[C@@H](Cc1c[nH]c2ccccc12)C(=O)N[C@@H](CC(C)C)C(=O)N[C@H](C(=O)N[C@@H](CCC(N)=O)C(=O)N[C@H](C(=O)N[C@@H](CCCCN)C(N)=O)[C@@H](C)O)[C@@H](C)CC)[C@@H](C)CC)[C@@H](C)CC)[C@@H](C)O` (some centres not stated) gave a clearance in series [2] of 0.32 mL/min/kg. Also, the EC50 in series [3] is 0.11 nM; in series [6], 45 nM. In series [4], this molecule came in with an Efficacy of 73%. Also, the result in series [5] was inactive. Moreover, the Ratio EC50 in the series on HEK293 is 400.
The molecule `CCCCC(NC(=O)[C@H](CCC(=O)O)NC(=O)[C@H](CC(=O)O)NC(=O)[C@H](CO)NC(=O)[C@H](Cc1ccccc1)NC(=O)[C@H](CO)NC(=O)CNC(=O)[C@H](CC(=O)O)NC(=O)CNC(=O)[C@@H](N)Cc1cnc[nH]1)C(=O)N[C@@H](Cc1c[nH]c2ccccc12)C(=O)N[C@H](C(=O)N[C@H](C(=O)N[C@@H](CC(C)C)C(=O)N[C@@H](CC(=O)O)C(=O)N[C@@H](CC(N)=O)C(=O)N[C@@H](CC(C)C)C(=O)N[C@@H](C)C(=O)N[C@@H](C)C(=O)N[C@@H](CCCNC(=N)N)C(=O)N[C@@H](CC(=O)O)C(=O)N[C@@H](Cc1ccccc1)C(=O)N[C@H](C(=O)N[C@@H](CC(N)=O)C(=O)N[C@@H](Cc1c[nH]c2ccccc12)C(=O)N[C@@H](CC(C)C)C(=O)N[C@H](C(=O)N[C@@H](CCC(N)=O)C(=O)N[C@H](C(=O)N[C@@H](CCCCN)C(N)=O)[C@@H](C)O)[C@@H](C)CC)[C@@H](C)CC)[C@@H](C)CC)[C@@H](C)O` (some centres not stated) had a clearance in series [2] of 0.71 mL/min/kg. Besides, the figures for the EC50 in series [3] and in series [6] were 0.21 nM and 56 nM, respectively. Besides, the Efficacy in series [4] was 35%. The outcome in series [5] was inactive. In addition, the Ratio EC50 in the series with HEK293 turned out to be 260.
`CCCCC(NC(=O)[C@H](CCC(=O)O)NC(=O)[C@H](CC(=O)O)NC(=O)[C@H](CO)NC(=O)[C@H](Cc1ccccc1)NC(=O)[C@H](CO)NC(=O)CNC(=O)[C@H](CC(=O)O)NC(=O)CNC(=O)[C@@H](N)Cc1cnc[nH]1)C(=O)N[C@H](Cc1c[nH]c2ccccc12)C(=O)N[C@H](C(=O)N[C@H](C(=O)N[C@@H](CC(C)C)C(=O)N[C@@H](CC(=O)O)C(=O)N[C@@H](CC(N)=O)C(=O)N[C@@H](CC(C)C)C(=O)N[C@@H](C)C(=O)N[C@@H](C)C(=O)N[C@@H](CCCNC(=N)N)C(=O)N[C@@H](CC(=O)O)C(=O)N[C@@H](Cc1ccccc1)C(=O)N[C@H](C(=O)N[C@@H](CC(N)=O)C(=O)N[C@@H](Cc1c[nH]c2ccccc12)C(=O)N[C@@H](CC(C)C)C(=O)N[C@H](C(=O)N[C@@H](CCC(N)=O)C(=O)N[C@H](C(=O)N[C@@H](CCCCN)C(N)=O)[C@@H](C)O)[C@@H](C)CC)[C@@H](C)CC)[C@@H](C)CC)[C@@H](C)O` (some centres not stated) gave a clearance in series [2] of 1.2 mL/min/kg. Also, the EC50 in series [3] turned out to be 0.1 nM; in series [6], 40 nM. In addition, the Efficacy in series [4] amounted to 80%. Also, the result in series [5] was inactive. In addition, the Ratio EC50 in the series with HEK293 stood at 400.
